# Assay results from patent publication US8163756B2 (priority 2004, dated 2012).
# Key:
# Format in all cases: biochemical
# [1] = molecular target: B-Raf(V599E) kinase (Homo sapiens, UniProt P15056, V600E); assay: B-Raf(V599E) kinase assay B1 (construct 1, MEK1 substrate, coupled spectrophotometric)
# Description: The test compounds were incubated with the reaction mixtureat 30° C. for 2 h. […] The reaction rate was calculated using the […] time frame. […] IC50 values were calculated from a series of percent inhibition values determined at a range of inhibitor concentrations using software routines as implemented in the GraphPad Prism software package.
# [2] = molecular target: T1, KDR kinase (Homo sapiens, UniProt P35968, DEL940-989/E990V); assay: KDR kinase assay K2 (as K1, 2.1 nM enzyme, 2 h pre-incubation, 1.0 mM ATP); conditions: Method K2; read-out: KDR Data (IC50)
# T1 sequence (P35968 with tags, fused parts or gaps DEL940-989/E990V): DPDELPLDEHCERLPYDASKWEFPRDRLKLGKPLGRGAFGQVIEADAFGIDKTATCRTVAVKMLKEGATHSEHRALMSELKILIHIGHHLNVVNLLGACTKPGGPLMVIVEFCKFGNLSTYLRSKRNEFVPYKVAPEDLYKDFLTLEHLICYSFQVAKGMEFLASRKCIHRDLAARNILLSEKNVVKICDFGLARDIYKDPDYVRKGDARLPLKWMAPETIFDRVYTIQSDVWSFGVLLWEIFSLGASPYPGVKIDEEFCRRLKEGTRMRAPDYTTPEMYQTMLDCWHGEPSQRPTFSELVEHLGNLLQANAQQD
# Description: (§1) IC50 values were calculated from a series of percent inhibition values determined at a range of inhibitor concentrations using software routines as implemented in the GraphPad Prism software package.
# [3] = molecular target: phosphorylated p-38-alpha kinase (Homo sapiens, UniProt Q16539); assay: P-38 alpha kinase assay P1 (coupled spectrophotometric, 2 h pre-incubation); conditions: method P1 (2 h pre-incubation); read-out: P-38 Data
# phosphorylated p-38-alpha kinase, sequence (Q16539 1-360 isoform Q16539-2): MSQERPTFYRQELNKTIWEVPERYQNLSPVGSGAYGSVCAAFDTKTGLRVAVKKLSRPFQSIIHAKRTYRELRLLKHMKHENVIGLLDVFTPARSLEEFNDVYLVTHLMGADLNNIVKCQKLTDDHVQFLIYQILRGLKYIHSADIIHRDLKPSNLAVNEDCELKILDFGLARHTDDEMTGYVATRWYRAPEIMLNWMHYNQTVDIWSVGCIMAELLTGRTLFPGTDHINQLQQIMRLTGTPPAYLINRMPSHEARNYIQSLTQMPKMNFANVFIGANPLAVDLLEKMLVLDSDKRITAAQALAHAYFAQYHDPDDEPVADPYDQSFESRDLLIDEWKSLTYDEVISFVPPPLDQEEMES
# [4] = molecular target: T2, Abl kinase (Homo sapiens, UniProt P00519); assay: Abl kinase assay A1 (pyruvate kinase/lactate dehydrogenase coupled, spectrophotometric); conditions: Method A1; read-out: Abl Data (IC50)
# T2 sequence (P00519 229-512): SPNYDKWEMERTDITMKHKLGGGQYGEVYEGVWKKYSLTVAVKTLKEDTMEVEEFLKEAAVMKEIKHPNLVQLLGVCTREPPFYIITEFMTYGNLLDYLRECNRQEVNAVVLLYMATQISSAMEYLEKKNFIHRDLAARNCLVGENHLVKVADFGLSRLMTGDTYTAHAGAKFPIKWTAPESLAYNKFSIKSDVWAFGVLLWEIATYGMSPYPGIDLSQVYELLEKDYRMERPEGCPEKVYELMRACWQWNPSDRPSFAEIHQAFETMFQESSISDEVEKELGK
# Description: as §1
# [5] = molecular target: T1, KDR kinase; assay: KDR kinase assay K1 (pyruvate kinase/lactate dehydrogenase coupled, spectrophotometric); conditions: Method K1; read-out: KDR Data (IC50)
# Description: as §1
# B-Raf(V599E) kinase, sequence (P15056 with tags, fused parts or gaps V600E): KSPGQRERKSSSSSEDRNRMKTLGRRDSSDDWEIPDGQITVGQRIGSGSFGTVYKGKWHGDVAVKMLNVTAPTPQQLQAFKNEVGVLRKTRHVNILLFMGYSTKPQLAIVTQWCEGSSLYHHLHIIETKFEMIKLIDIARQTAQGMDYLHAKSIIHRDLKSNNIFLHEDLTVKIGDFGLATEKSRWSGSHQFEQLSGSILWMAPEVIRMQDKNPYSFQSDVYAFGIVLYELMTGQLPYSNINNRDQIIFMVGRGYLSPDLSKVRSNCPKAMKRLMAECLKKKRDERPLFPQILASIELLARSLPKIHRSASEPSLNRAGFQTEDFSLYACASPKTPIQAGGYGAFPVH
SMILES,IC50 [1],IC50 [2],IC50 [3],IC50 [4],IC50 [5]
"COc1cccc(-n2nc(C(C)(C)C)cc2NC(=O)Nc2cccc(Br)c2)c1 [Example 232, 1-(3-t-butyl-1-(3-methoxyphenyl)-1H-pyrazol-5-yl)-3-(3-bromophenyl)urea]",38 nM,2600 nM,,,
"CC(C)(C)c1cc(NC(=O)Nc2cccc(F)c2F)n(-c2ccc3c(c2)CCNC(=O)C3)n1 [Example 334, 1-(3-t-butyl-1-(2-oxo-2,3,4,5-tetrahydro-1H-benzo[d]azepin-7-yl)-1 H-pyrazol-5-yl)-3-(2,3-difluorophenyl)urea]",11 nM,3400 nM,,,
"CCOC(=O)C1CCN(C(=O)Cc2cccc(-n3nc(C(C)(C)C)cc3NC(=O)Nc3cccc(Cl)c3Cl)c2)CC1 [Example 344, ethyl 1-[2-(3-{3-t-butyl-5-[3-(2,3-dichlorophenyl)ureido]-1H-pyrazol-1-yl}phenyl)acetyl]piperidine-4-carboxylate]",,2700 nM,,,
"CC(C)(C)c1cc(NC(=O)Nc2cccc3ccccc23)n(-c2ccc3c(c2)C(=O)NCC3)n1 [Example 348, 1-[3-t-butyl-1-(1-oxo-1,2,3,4-tetrahydroisoquinolin-7-yl)-1 H-pyrazol-5-yl]-3-(naphthalen-1-yl)urea]",,16500 nM,,,
"CC(C)(C)c1cc(NC(=O)Nc2cc(F)cc(F)c2)n(-c2cccc(C#N)c2)n1 [Example 208, 1-(3-t-butyl-1-(3-cyanophenyl)-1H-pyrazol-5-yl)-3-(3,5-difluorophenyl)urea]",,470 nM,,,
"CC(C)(C)c1cc(NC(=O)Nc2ccc(Cl)cc2)n(-c2ccc3ncccc3c2)n1 [Example 339, 1-[3-t-butyl-1-(quinolin-6-yl)-1H-pyrazol-5-yl]-3-(4-chlorophenyl)urea]",,1200 nM,,,
"CCOC(=O)C1CCCN(C(=O)Cc2ccc(-n3nc(C(C)(C)C)cc3NC(=O)Nc3cccc(Cl)c3Cl)cc2)C1 (centres unmarked) [Example 346, ethyl 1-[2-(4-{3-t-butyl-5-[3-(2,3-dichlorophenyl)ureido]-1H-pyrazol-1-yl}phenyl)acetyl]piperidine-3-carboxylate]",,1700 nM,,,
"CC(C)(C)c1cc(NC(=O)Nc2ccc(F)c(F)c2)n(-c2cccc(C#N)c2)n1 [Example 206, 1-(3-t-butyl-1-(3-cyanophenyl)-1H-pyrazol-5-yl)-3-(3,4-difluorophenyl)urea]",,480 nM,,,
"COc1cccc(-n2nc(C(C)(C)C)cc2NC(=O)Nc2ccc([N+](=O)[O-])cc2)c1 [Example 338, 1-(3-t-butyl-1-(3-methoxyphenyl)-1H-pyrazol-5-yl)-3-(4-nitrophenyl)urea]",,5000 nM,,,
"CC(C)(C)c1cc(NC(=O)Nc2ccc(Cl)cc2)n(-c2cccc(CNC(=O)N3CCOCC3)c2)n1 [Example 343, 1-(3-t-butyl-1-{3-[(morpholine-4-carboxamido)methyl]phenyl}-1H-pyrazol-5-yl)-3-(4-chlorophenyl)urea]",,18000 nM,,,
"COc1cccc(-n2nc(C(C)(C)C)cc2NC(=O)Nc2ccc(Cl)c(Cl)c2)c1 [Example 337, 1-(3-t-butyl-1-(3-methoxyphenyl)-1H-pyrazol-5-yl)-3-(3,4-dichlorophenyl)urea]",,2000 nM,,,
"CC(C)(C)c1cc(NC(=O)Nc2cccc(Cl)c2Cl)n(-c2ccc3c(c2)CN[C@H](C(N)=O)C3)n1 [Example 178, 1-(3-t-butyl-1-((3S)-3-carbamoyl-1,2,3,4-tetrahydroisoquinolin-7-yl)-1 H-pyrazol-5-yl)-3-(2,3-dichlorophenyl)urea]",2 nM,,46 nM,230 nM,180 nM
"CC(C)(C)c1cc(NC(=O)Nc2cccc(Cl)c2Cl)n(-c2cccc(C(N)=O)c2)n1 [Example 13, 1-[3-t-butyl-1-(3-carbamoylphenyl)-1H-pyrazol-5-yl]-3-(2,3-dichlorophenyl)urea]",5.2 nM,,45 nM,2000 nM,360 nM
"CC(C)(C)c1cc(NC(=O)N[C@H]2CCc3ccccc32)n(-c2ccc3c(c2)CCNC3)n1 [Example 199, 1-(3-t-butyl-1-(1,2,3,4-tetrahydroisoquinolin-6-yl)-1H-pyrazol-5-yl)-3-((S)-2,3-dihydro-1H-inden-1-yl)urea]",,34400 nM,,,
"CC(C)(C)c1cc(NC(=O)Nc2cccc(Cl)c2Cl)n(-c2ccc3c(c2)CCNC(=O)C3)n1 [Example 165, 1-(3-t-butyl-1-(2-oxo-2,3,4,5-tetrahydro-1H-benzo[d]azepin-7-yl)-1H-pyrazol-5-yl)-3-(2,3-dichlorophenyl)urea]",2.4 nM,,7 nM,200 nM,210 nM
"CC(C)(C)c1cc(NC(=O)Nc2cccc(Cl)c2Cl)n(-c2ccc3c(c2)C(N)=NCC3)n1 [Example 129, 1-[1-(1-amino-3,4-dihydroisoquinolin-7-yl)-3-t-butyl-1H-pyrazol-5-yl]-3-(2,3-dichlorophenyl)urea]",4.2 nM,,130 nM,270 nM,500 nM
"CC(C)(C)c1cc(NC(=O)Nc2cccc(Cl)c2Cl)n(-c2cccc(C(=N)N)c2)n1 [Example 44, 1-[3-t-butyl-1-(3-carbamimidoylphenyl)-1H-pyrazol-5-yl]-3-(2,3-dichlorophenyl)urea]",4 nM,,70 nM,440 nM,2400 nM
"CC(C)(C)c1cc(NC(=O)Nc2cccc(Cl)c2Cl)n(-c2ccc3c(c2)CN[C@H](C(=O)O)C3)n1 [Example 177, (3S)-7-(3-t-butyl-5-(3-(2,3-dichlorophenyl)ureido)-1H-pyrazol-1-yl)-1,2,3,4-tetra-hydroisoquinoline-3-carboxylic acid]",6.3 nM,,43 nM,1800 nM,230 nM
"CC(C)(C)c1cc(NC(=O)Nc2ccc(F)cc2F)n(-c2ccc3c(c2)CCN(S(C)(=O)=O)C3)n1 [Example 200, 1-(3-t-butyl-1-(2-(methylsulfonyl)-1,2,3,4-tetrahydroisoquinolin-6-yl)-1H-pyrazol-5-yl)-3-(2,4-difluorophenyl)urea]",,2700 nM,,,
"CC(C)(C)c1cc(NC(=O)Nc2cccc(Cl)c2Cl)n(-c2ccc(C(C)(C)O)cc2)n1 [Example 20, 1-{3-t-butyl-1-[4-(2-hydroxypropan-2-yl)phenyl]-1H-pyrazol-5-yl}-3-(2,3-dichlorophenyl)urea]",8.5 nM,,60 nM,1600 nM,130 nM
"CC(C)(C)c1cc(NC(=O)Nc2cccc(Cl)c2Cl)n(-c2ccc3c(c2)CN(S(C)(=O)=O)CC3)n1 [Example 127, 1-{3-t-butyl-1-[2-(methanesulfonyl)-1,2,3,4-tetrahydroisoquinolin-7-yl]-1H-pyrazol-5-yl}-3-(2,3-dichlorophenyl)urea]",3.4 nM,,13 nM,220 nM,220 nM
"CC(C)(C)c1cc(NC(=O)Nc2cc(F)cc(F)c2F)n(-c2cccc(C#N)c2)n1 [Example 209, 1-(3-t-butyl-1-(3-cyanophenyl)-1H-pyrazol-5-yl)-3-(2,3,5-trifluorophenyl)urea]",,260 nM,,,
"CC(C)(C)c1cc(NC(=O)Nc2ccc(Cl)cc2)n(-c2cccc(CCO)c2)n1 [Example 342, 1-{3-t-butyl-1-[3-(2-hydroxyethyl)phenyl]-1H-pyrazol-5-yl}-3-(4-chlorophenyl)-urea]",,5700 nM,,,
"CC(C)(C)c1cc(NC(=O)Nc2cccc(Cl)c2Cl)n(-c2ccc(CCO)cc2)n1 [Example 45, 1-{3-t-butyl-1-[4-(2-hydroxyethyl)-phenyl]-1H-pyrazol-5-yl}-3-(2,3-dichlorophenyl)urea]",6.2 nM,,5 nM,780 nM,360 nM
